US20260008783A1, “MODULATORS OF FSHR AND USES THEREOF” (Celmatix Inc., priority 2022, published 2026)

Biological target: T1, Follicle Stimulating Hormone Receptor (FSHR) (Homo sapiens, UniProt P23945)
T1 construct: HA (N); expressed in transfected cells; host or cells: CHO-K1, transient transfection, pHM6 vector (CMV promoter)
T1 sequence (P23945 18-695): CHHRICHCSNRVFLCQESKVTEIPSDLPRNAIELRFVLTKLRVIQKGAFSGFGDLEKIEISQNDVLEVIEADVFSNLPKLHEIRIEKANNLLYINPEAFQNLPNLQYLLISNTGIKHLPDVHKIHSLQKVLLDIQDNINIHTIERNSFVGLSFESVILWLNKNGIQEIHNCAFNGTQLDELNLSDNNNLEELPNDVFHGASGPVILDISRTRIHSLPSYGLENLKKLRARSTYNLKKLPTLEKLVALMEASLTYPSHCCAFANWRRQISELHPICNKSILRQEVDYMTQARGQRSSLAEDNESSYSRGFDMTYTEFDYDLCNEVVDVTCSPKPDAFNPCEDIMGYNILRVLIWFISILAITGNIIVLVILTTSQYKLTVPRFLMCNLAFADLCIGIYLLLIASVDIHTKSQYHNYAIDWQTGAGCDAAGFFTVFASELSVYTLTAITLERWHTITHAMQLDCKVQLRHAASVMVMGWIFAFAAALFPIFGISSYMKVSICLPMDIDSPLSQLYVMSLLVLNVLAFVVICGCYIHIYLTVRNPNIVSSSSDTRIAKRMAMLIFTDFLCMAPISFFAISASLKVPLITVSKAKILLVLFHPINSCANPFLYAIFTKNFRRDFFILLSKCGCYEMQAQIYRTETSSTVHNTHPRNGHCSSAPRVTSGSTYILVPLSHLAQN
Test: HTRF cAMP agonist assay, FSHR, transiently transfected CHO-K1 cells
Type: cell-based
Conditions: CHO-K1 cells transiently expressing human FSHR, read-out: IC50 FSHR LANCE CAMP
Text: Example 17. HTRF cAMP Agonist Assay Protocol (for FSHR, TSHR, LHCGR)
Mammalian expression vectors designed to express either Follicle Stimulating Hormone Receptor (FSHR), Thyroid Stimulating Hormone Receptor (TSHR), or Luteinizing Hormone/Choriogonadotropin Receptor (LHCGR), were generated with an HA-tag on the N-terminus. All constructs were expressed under a human cytomegalovirus (CMV) immediate early enhancer and promoter using the pHM6 expression vector. The protein coding region was confirmed by sequence analysis to be in-frame and of the expected sequence, matching the following accession numbers: FSHR NM_000145, TSHR NM_000369, and LHCGR NM_000233.
HTRF cAMP assays were performed using Chinese Hamster Ovary (CHO-K1) cell lines transiently expressing human FSH, TSH, and LHCG receptors. 48 hours before the assay, cells were washed with PBS and then dissociated from tissue culture flasks with 0.25% trypsin. Dissociated cells were quenched in full media (F-12K Medium Corning REF #10-025-CV, 10% Avantor Seradigm FB Essence Cat #10803-034, 1% Penicillin/Streptomycin Cytiva HyClone Cat #SV30010) and then collected by centrifugation at 290×g for 5 min. Cells were resuspended in full media and dispensed into 150 mm cell culture dishes (Nest Scientific Cat #715001), at 2.3×10^6 cells/flask. 7 hours later, cells were transfected using Lipofectamine transfection reagent (Invitrogen Cat #18324020). Briefly, 60 μL of lipofectamine was dispensed into 2 mL of Opti-MEM (Gibco Cat #31985070) and incubated for 5 minutes at room temperature. Then, the mixture was added onto […] of DNA and incubated for another 20 minutes at room temperature. Cells were washed with warm (37° C.) PBS. 17.5 mL of Opti-MEM was dispensed onto the cells, followed by addition of the Opti-MEM/lipofectamine/DNA mixture. Cells were incubated overnight in a 37° C., 5% CO2 cell incubator. 17-19 hours later, Opti-MEM was aspirated off the cells and replaced with full media. Cells were incubated for another 24 hours in a 37° C., 5% CO2 cell incubator.
On the day of the assay, cells were washed with PBS and then dissociated from tissue culture flasks with 0.25% trypsin. Dissociated cells were quenched in full media and then collected by centrifugation at 290×g for 5 min. Cells were resuspended in PBS^+/+ (Corning REF #20-030-CV) to a concentration of 2×10^5 cells/mL. 10 μL/well of cells (2,000 cells/well) were dispensed into 384-well Corning plates (REF #3825), in triplicate. Cells were incubated at room temperature for 2 hours.
Example FSHR Modulator compounds were diluted in assay buffer (PBS^+/+, 0.05% BSA Sigma-Aldrich A3059, 500 μM IBMX Sigma-Aldrich 15879) to 3.5× the final assay concentration. 4 μL of test agonist was added to the cells and incubated for 1 hour at room temperature. 10 μL of cAMP detection reagents (LANCE Ultra cAMP Detection Kit PerkinElmer TRF0264) were dispensed onto the cells and plates were incubated for 2 hours at room temperature (cAMP detection reagents were made according to the PerkinElmer kit protocol). Plates were read on an Envision plate reader following PerkinElmer guidelines.
Raw data for all assays was transmitted directly from plate readers into a database for processing. All assay plates contained both positive and negative control wells to allow for data normalization and scaling. In agonist assays, negative control wells contained assay buffer and positive control wells contained […] positive control (10 nM Follicle Stimulating Hormone Sigma-Aldrich F4021, 50 nM Thyroid Stimulating Hormone Sigma-Aldrich 869006, 50 nM Luteinizing Hormone MyBioSource MBS5308806, for their respective receptors). All control wells contained DMSO at a final assay concentration that matched the test compound wells. […]
Percent control data were analyzed by non-linear regression with a sigmoidal dose response algorithm in the database to yield potency and efficacy data.

IC50 | SMILES
0.0332 µM | COc1cc2c(cc1-c1cncc(C(N)=O)c1)-c1c(c(C(=O)N3C4CCC3CN(C)C4)nn1-c1cc(Cl)cc(Cl)c1)CC2 [Compound 8-15]
0.0793 µM | COc1cc2c(cc1-c1cncc(C(N)=O)c1)-c1c(c(C(=O)N3C4CC3CN(C(=O)OC(C)(C)C)C4)nn1-c1cc(Cl)cc(Cl)c1)CC2 [Compound 8-16A]
0.769 µM | COc1cc2c(cc1-c1cncc(C(N)=O)c1)-c1c(c(C(=O)N3C4CNCC3C4)nn1-c1cc(Cl)cc(Cl)c1)CC2 [Compound 8-16B]
0.0704 µM | COc1cc2c(cc1-c1cncc(C(N)=O)c1)-c1c(c(C(=O)N3C4CC3CN(C)C4)nn1-c1cc(Cl)cc(Cl)c1)CC2 [Compound 8-16]
0.115 µM | COc1cc2c(cc1-c1cncc(C(N)=O)c1)-c1c(c(C(=O)N3CC4CCC3CN4C)nn1-c1cc(Cl)cc(Cl)c1)CC2 (centres unmarked) [Compound 8-17]
0.018 µM | COc1cc2c(cc1-c1cncc(C(N)=O)c1)-c1c(c(C(=O)N3[C@@H]4CC[C@H]3CN(C)C4)nn1-c1cc(Cl)cc(Cl)c1)CC2 [Compound 8-18]
0.00538 µM | COc1cc2c(cc1-c1cncc(C(N)=O)c1)-c1c(c(C(=O)N3[C@H](C)CNC[C@@H]3C)nn1-c1cc(Cl)cc(Cl)c1)CC2 [Compound 8-21]
0.0349 µM | COc1cc2c(cc1-c1cncc(C(N)=O)c1)-c1c(c(C(=O)N3[C@@H](C)CNC[C@@H]3C)nn1-c1cc(Cl)cc(Cl)c1)CC2 [Compound 8-22]
0.928 µM | COc1cc2c(cc1-c1cncc(C(N)=O)c1)-c1c(c(C(=O)N3CCC4CN(C(=O)OC(C)(C)C)CCC43)nn1-c1cc(Cl)cc(Cl)c1)CC2 (centres unmarked) [Compound 8-23A, tert-butyl 1-[8-(5-carbamoyl-3-pyridyl)-1-(3,5-dichlorophenyl)-7-methoxy-4,5-dihydrobenzo[g]indazole-3-carbonyl]-3,3a,4,6,7,7a-hexahydro-2H-pyrrolo[3,2-c]pyridine-5-carboxylate]

The remaining lines, values behind:

SMILES | IC50
COc1cc2c(cc1-c1cncc(C(N)=O)c1)-c1c(c(C(=O)N3CCCNCC3(C)C)nn1-c1cc(Cl)cc(Cl)c1)CC2 [Compound 8-04, 5-[1-(3,5-dichlorophenyl)-3-(2,2-dimethyl-1,4-diazepane-1-carbonyl)-7-methoxy-4,5-dihydrobenzo[g]indazol-8-yl]pyridine-3-carboxamide] | 0.0283 µM
COc1cc2c(cc1-c1cncc(C(N)=O)c1)-c1c(c(C(=O)N3CCC(=O)NCC3(C)C)nn1-c1cc(Cl)cc(Cl)c1)CC2 [Compound 8-04A, 5-[1-(3,5-dichlorophenyl)-3-(2,2-dimethyl-5-oxo-1,4-diazepane-1-carbonyl)-7-methoxy-4,5-dihydrobenzo[g]indazol-8-yl]pyridine-3-carboxamide] | 0.00979 µM
COc1cc2c(cc1-c1cncc(C(N)=O)c1)-c1c(c(C(=O)N3CCN(C)CC3C)nn1-c1cc(Cl)cc(Cl)c1)CC2 (centres unmarked) [Compound 8-05, 5-[1-(3,5-dichlorophenyl)-3-(2,4-dimethylpiperazine-1-carbonyl)-7-methoxy-4,5-dihydrobenzo[g]indazol-8-yl]pyridine-3-carboxamide] | 0.0603 µM
COc1cc2c(cc1-c1cncc(C(N)=O)c1)-c1c(c(C(=O)N3CCN(C)CC3(C)C)nn1-c1cc(Cl)cc(Cl)c1)CC2 [Compound 8-06] | 0.0176 µM
COc1cc2c(cc1-c1cncc(C(N)=O)c1)-c1c(c(C(=O)N3CCCN(C)CC3)nn1-c1cc(Cl)cc(Cl)c1)CC2 [Compound 8-07, 5-[1-(3,5-dichlorophenyl)-7-methoxy-3-(4-methyl-1,4-diazepane-1-carbonyl)-4,5-dihydrobenzo[g]indazol-8-yl]pyridine-3-carboxamide] | 0.115 µM
COc1cc2c(cc1-c1cncc(C#N)c1)-c1c(c(C(=O)N3CCCN(C)CC3)nn1-c1cc(Cl)cc(Cl)c1)CC2 [Compound 8-07A, 5-(1-(3,5-dichlorophenyl)-7-methoxy-3-(4-methyl-1,4-diazepane-1-carbonyl)-4,5-dihydro-1H-benzo[g]indazol-8-yl)nicotinonitrile] | 3.04 µM
COc1cc2c(cc1-c1cncc(C(N)=O)c1)-c1c(c(C(=O)N3CCN(C#N)CC3C)nn1-c1cc(Cl)cc(Cl)c1)CC2 (centres unmarked) [Compound 8-09, 5-[3-(4-cyano-2-methyl-piperazine-1-carbonyl)-1-(3,5-dichlorophenyl)-7-methoxy-4,5-dihydrobenzo[g]indazol-8-yl]pyridine-3-carboxamide] | 0.00444 µM
COc1cc2c(cc1-c1cncc(C(N)=O)c1)-c1c(c(C(=O)N(C)C(C)(C)CO)nn1-c1cc(Cl)cc(Cl)c1)CC2 [Compound 8-10] | 0.991 µM
COc1cc2c(cc1-c1cncc(C(N)=O)c1)-c1c(c(C(=O)N3CCC(S(C)(=O)=O)CC3C)nn1-c1cc(Cl)cc(Cl)c1)CC2 (centres unmarked) [Compound 8-13, 5-[1-(3,5-dichlorophenyl)-7-methoxy-3-(2-methyl-4-methylsulfonyl-piperidine-1-carbonyl)-4,5-dihydrobenzo[g]indazol-8-yl]pyridine-3-carboxamide] | 0.244 µM
COc1cc2c(cc1-c1cncc(C(N)=O)c1)-c1c(c(C(=O)N3CCCC3(C)C)nn1-c1cc(Cl)cc(Cl)c1)CC2 [Compound 8-14] | 0.00347 µM
COc1cc2c(cc1-c1cncc(C(N)=O)c1)-c1c(c(C(=O)N3CCC4CNCCC43)nn1-c1cc(Cl)cc(Cl)c1)CC2 (centres unmarked) [Compound 8-23, 5-[3-(2,3,3a,4,5,6,7,7a-octahydropyrrolo[3,2-c]pyridine-1-carbonyl)-1-(3,5-dichlorophenyl)-7-methoxy-4,5-dihydrobenzo[g]indazol-8-yl]pyridine-3-carboxamide] | 0.457 µM
COc1cc2c(cc1-c1cncc(C(N)=O)c1)-c1c(c(C(=O)N3CC4CCC3CN4)nn1-c1cc(Cl)cc(Cl)c1)CC2 (centres unmarked) [Compound 8-24] | 0.524 µM
COc1cc2c(cc1-c1cncc(C(N)=O)c1)-c1c(c(C(=O)N3CCNC[C@H]3C(C)C)nn1-c1cc(Cl)cc(Cl)c1)CC2 [Compound 8-25] | 0.0718 µM
COc1cc2c(cc1-c1cncc(C#N)c1)-c1c(c(C(=O)N3CCNC(=O)C3(C)C)nn1-c1cc(Cl)cc(Cl)c1)CC2 [Compound 8-26A] | 0.0103 µM
COc1cc2c(cc1-c1cncc(C(N)=O)c1)-c1c(c(C(=O)N3CCNC(=O)C3(C)C)nn1-c1cc(Cl)cc(Cl)c1)CC2 [Compound 8-26] | 0.0163 µM
COc1cc2c(cc1-c1cncc(C(N)=O)c1)-c1c(c(C(=O)N3CCNC(=O)C3(C)C)nn1-c1cc(Cl)cc(Cl)c1)CC2 [Compound 8-26b] | 0.0203 µM
COc1cc2c(cc1-c1cncc(C(N)=O)c1)-c1c(c(C(=O)N3CCCC34COC4)nn1-c1cc(Cl)cc(Cl)c1)CC2 [Compound 8-27] | 0.03 µM
